For this experiment, the target named is T1, Androgen Receptor (AR) in the LNCaP prostate carcinoma cell line (Homo sapiens, UniProt P10275, T878A).
T1 construct: cell based immuno-fluorescence assay using the LNCaP prostate epithelial cell line; host or cells: LNCaP clone FGC
T1 sequence (P10275 1-920 T878A): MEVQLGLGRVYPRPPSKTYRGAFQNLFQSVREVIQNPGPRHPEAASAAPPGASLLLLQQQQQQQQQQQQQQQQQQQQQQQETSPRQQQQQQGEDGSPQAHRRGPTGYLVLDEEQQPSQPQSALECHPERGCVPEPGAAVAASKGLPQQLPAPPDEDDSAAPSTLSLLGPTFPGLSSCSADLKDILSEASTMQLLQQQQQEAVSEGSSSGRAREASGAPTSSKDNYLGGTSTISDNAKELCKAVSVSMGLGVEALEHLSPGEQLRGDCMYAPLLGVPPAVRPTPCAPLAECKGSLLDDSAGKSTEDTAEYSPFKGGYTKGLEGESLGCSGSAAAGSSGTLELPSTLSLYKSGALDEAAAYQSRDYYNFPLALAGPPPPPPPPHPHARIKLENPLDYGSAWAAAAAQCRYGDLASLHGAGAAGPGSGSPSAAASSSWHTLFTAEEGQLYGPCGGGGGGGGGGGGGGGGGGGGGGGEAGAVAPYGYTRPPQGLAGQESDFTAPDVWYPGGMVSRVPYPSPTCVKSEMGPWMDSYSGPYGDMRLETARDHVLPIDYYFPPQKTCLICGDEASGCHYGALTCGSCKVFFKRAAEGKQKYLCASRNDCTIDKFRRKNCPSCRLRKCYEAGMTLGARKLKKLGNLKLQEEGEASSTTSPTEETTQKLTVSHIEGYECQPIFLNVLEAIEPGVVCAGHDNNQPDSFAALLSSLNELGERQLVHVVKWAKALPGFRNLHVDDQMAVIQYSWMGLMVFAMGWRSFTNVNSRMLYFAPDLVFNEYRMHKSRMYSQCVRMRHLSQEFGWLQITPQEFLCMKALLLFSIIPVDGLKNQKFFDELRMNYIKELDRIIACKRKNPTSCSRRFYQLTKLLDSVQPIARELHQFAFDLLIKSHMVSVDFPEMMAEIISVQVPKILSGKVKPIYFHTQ
The experiment is described as follows: LNCaP Androgen Receptor Down-Regulation Cell Assay (immunofluorescence end point). The format is cell-based. Conditions: LNCaP cells, compound incubation 20-22 hours, concentration giving 50% reduction of the AR signal. As to the method: The ability of compounds to reduce Androgen Receptor (AR) numbers was assessed in a cell based immuno-fluorescence assay using the LNCaP prostate epithelial cell line.
This immunofluorescence end point assay measures the ability of a test compound to down-regulate and reduce measured levels of the AR in the LNCaP prostate carcinoma cell line (LNCaP clone FGC (CRL-1740) obtained from the American Type Culture Collection (ATCC)).
LNCaP cells were cultured in Growth Medium (phenol red free Roswell Park Memorial Institute (RPMI) 1640 (Invitrogen Code no. 11835-063) containing 2 mM L-Glutamine (Invitrogen Code no. 25030-024) and 1% (v/v) Penicillin/Streptomycin (10000 units/ml Penicillin and 10000 μg/ml of Streptomycin utilising penicillin G (sodium salt) and streptomycin sulphate: prepared in normal saline, Invitrogen Code no. 15140122) and 10% (v/v) foetal bovine serum (FBS)) in a 5% CO2 air incubator at 37° C. Cells for assay were harvested from T175 stock flasks by washing once in PBS (phosphate buffered saline, pH 7.4) (Invitrogen Code no. 14190-094) and harvested using 5 mls of 1× Trypsin/ethylaminediaminetetraacetic acid (EDTA) (10× Trypsin-EDTA, 5.0 g/L Trypsin, 2.0 g/L of EDTA.4Na and 8.5 g/L of NaCl, without Phenol Red, Invitrogen Code no. 15400-054) diluted in PBS solution. A 5 ml volume of Growth Medium was added to each flask (as above except that 5% (v/v) charcoal stripped FBS (HyClone Code no. SH30068.03) was included instead of 10% (v/v) FBS). Cells were syringed at least twice using a sterile 18 G×1.5″ (1.2×40 mm) broad gauge needle and cell density was measured using a haemocytometer. Cells were further diluted in Growth Medium plus 5% (v/v) charcoal stripped FBS and seeded at a density of 6.5×10^3 cells per well (in 90 ul) into transparent, black, tissue culture treated 96 well plates (Packard, No. 6005182).
Test data reported herein was generated using two different compounds preparation and dosing methods. In method (1) a 10 mM compound stock solution in 100% (v/v) DMSO was serially diluted in 4-fold steps in 100% (v/v) DMSO using a Thermo Scientific Matrix SerialMate. The diluted compounds were then further diluted 1 in 30 in assay media using a Thermo Scientific Matrix PlateMate and a 10 μl aliquot of this dilution was dosed to cells manually using a multi-channel pipette. In method (2) starting with a 10 mM compound stock solution, the Labcyte Echo 550 was used to generate a compound concentration response set diluted in 30 μl of assay media. The Echo 550 is a liquid handler that uses acoustic technology to perform direct microplate-to-microplate transfers of DMSO compound solutions. The system can be programmed to transfer volumes as low as 2.5 nL in multiple increments between microplates and in so doing generates a serial dilution of compound which is then back-filled to normalise the DMSO concentration across the dilution range. A 10 μl volume of diluted compound is then dosed to cells using a Thermo Scientific Matrix PlateMate.
Plates were incubated overnight at 37° C., 5% CO2. Wells were then dosed with compound prepared by one of the 2 methods above and further incubated for 20-22 hours at 37° C., 5% CO2. Plates were fixed by the addition of 20 μl of 10% (v/v) formaldehyde solution (in PBS) to each well (final formaldehyde conc.=1.67% (v/v)) and left at room temperature for 10 mins. This fixative solution was removed and cells were washed with 250 μl of PBS/0.05% (v/v) Tween 20 (PBST) using an automated plate washer. This process was then repeated twice more.
Immunostaining was performed at room temperature. Cells were permeabilised by the addition of 35 μl of PBS containing 0.5% Tween 20 and incubated for 1 hour at room temperature. Permeabilisation solution was removed and cells were washed with 250 μl of PBST using an automated plate washer. This process was then repeated twice more. […]
The molecule “6-(4-{4-[2-(1H-imidazol-1-yl)ethoxy]phenyl}piperazin-1-yl)-3-(trifluoromethyl)-7,8-dihydro[1,2,4]triazolo[4,3-b]pyridazine [Example 38]” came in with an IC50 of 7.8 µM. Next, “6-(4-{4-[2-(1H-imidazol-1-yl)ethoxy]phenyl}piperidin-1-yl)-3-(trifluoromethyl)-7,8-dihydro[1,2,4]triazolo[4,3-b]pyridazine [Example 41]”: 2.9 µM; `CC(=O)N1CCN([C@H](C)COc2ccc(C3CCN(C4=Nn5c(nnc5C(F)(F)F)CC4)CC3)cc2)CC1` (single isomer, unassigned) [Example 53]: 0.18 µM.

For the molecule `CC(=O)N1CCN([C@@H](C)COc2ccc(C3CCN(C4=Nn5c(nnc5C(F)(F)F)CC4)CC3)cc2)CC1` (single isomer, unassigned) [Example 54], half-maximal inhibition (IC50) was put at 0.14 µM. Molecule `C[C@@H](COc1ccc(C2CCN(C3=Nn4c(nnc4C(F)(F)F)CC3)CC2)cc1)N1CCN(C)C(=O)C1` (single isomer, unassigned) [Example 55] had an IC50 of 0.18 µM. In the case of `C[C@H](COc1ccc(C2CCN(C3=Nn4c(nnc4C(F)(F)F)CC3)CC2)cc1)N1CCN(C)C(=O)C1` (single isomer, unassigned) [Example 56], it took 0.38 µM to reach half-maximal inhibition (IC50). With `Fc1ccc(CN2CCN(C3=Nn4c(nnc4C(F)(F)F)CC3)CC2)cc1` [Example 1, 6-[4-(4-fluorobenzyl)piperazin-1-yl]-3-(trifluoromethyl)-7,8-dihydro[1,2,4]triazolo[4,3-b]pyridazine] the figure was 6 µM; with `FC(F)(F)c1nnc2n1N=C(N1CC=C(c3c[nH]c4ccccc34)CC1)CC2` [Example 2, 6-[4-(1H-indol-3-yl)-5,6-dihydropyridin-1(2H)-yl]-3-(trifluoromethyl)-7,8-dihydro-[1,2,4]triazolo[4,3-b]pyridazine], 3.2 µM; with `FC(F)(F)c1nnc2n1N=C(N1CCC(c3c[nH]c4ccccc34)CC1)CC2` [Example 3, 6-[4-(1H-indol-3-yl)piperidin-1-yl]-3-(trifluoromethyl)-7,8-dihydro[1,2,4]triazolo[4,3-b]pyridazine], 1.2 µM. Next, `Fc1cccc(CN2CCN(C3=Nn4c(nnc4C(F)(F)F)CC3)CC2)c1` [Example 6, 6-[4-(3-fluorobenzyl)piperazin-1-yl]-3-(trifluoromethyl)-7,8-dihydro[1,2,4]triazolo[4,3-b]pyridazine]: 4 µM; `FC(F)(F)c1nnc2n1N=C(N1CCN(Cc3cccc(Cl)c3)CC1)CC2` [Example 7, 6-[4-(3-chlorobenzyl)piperazin-1-yl]-3-(trifluoromethyl)-7,8-dihydro[1,2,4]triazolo[4,3-b]pyridazine]: 2.9 µM; `FC(F)(F)c1cccc(CN2CCN(C3=Nn4c(nnc4C(F)(F)F)CC3)CC2)c1` [Example 8, 3-(trifluoromethyl)-6-{4-[3-(trifluoromethyl)benzyl]piperazin-1-yl}-7,8-dihydro[1,2,4]triazolo[4,3-b]pyridazine]: 2.7 µM. The molecule `Fc1cccc(CN2CCN(C3=Nn4c(nnc4C(F)(F)F)CC3)CC2)c1F` [Example 9, 6-[4-(2,3-difluorobenzyl)piperazin-1-yl]-3-(trifluoromethyl)-7,8-dihydro[1,2,4]triazolo[4,3-b]pyridazine] had an IC50 of 4.1 µM. Next, `Fc1ccc(C(F)F)c(CN2CCN(C3=Nn4c(nnc4C(F)(F)F)CC3)CC2)c1` [Example 10, 6-[4-[2-(difluoromethyl)-5-fluorobenzyl]piperazin-1-yl]-3-(trifluoromethyl)-7,8-dihydro[1,2,4]triazolo[4,3-b]pyridazine]: 1 µM; `FC(F)(F)c1nnc2n1N=C(N1CCN(Cc3c[nH]c4ccccc34)CC1)CC2` [Example 11, 6-[4-(1H-indol-3-ylmethyl)piperazin-1-yl]-3-(trifluoromethyl)-7,8-dihydro[1,2,4]triazolo[4,3-b]pyridazine]: 8.6 µM. For `Fc1ccc2[nH]cc(CN3CCN(C4=Nn5c(nnc5C(F)(F)F)CC4)CC3)c2c1` [Example 12, 6-{4-[(5-fluoro-1H-indol-3-yl)methyl]piperazin-1-yl}-3-(trifluoromethyl)-7,8-dihydro[1,2,4]triazolo[4,3-b]pyridazine], the IC50 turned out to be 3.4 µM. Next, `N#Cc1ccc2[nH]cc(CN3CCN(C4=Nn5c(nnc5C(F)(F)F)CC4)CC3)c2c1` [Example 13, 3-({4-[3-(trifluoromethyl)-7,8-dihydro[1,2,4]triazolo[4,3-b]pyridazin-6-yl]piperazin-1-yl}methyl)-1H-indole-5-carbonitrile]: more than 11 µM; `OC1(c2ccc(F)cc2)CCN(C2=Nn3c(nnc3C(F)(F)F)CC2)CC1` [Example 14, 4-(4-fluorophenyl)-1-[3-(trifluoromethyl)-7,8-dihydro[1,2,4]triazolo[4,3-b]pyridazin-6-yl]piperidin-4-ol]: more than 15 µM; `Cn1nccc1CCOc1ccc(C2CCN(C3=Nn4c(nnc4C(F)(F)F)CC3)CC2)cc1` [Example 15, 6-[4-[4-[2-(1-methyl-1H-pyrazol-5-yl)ethoxy]phenyl]piperidin-1-yl]-3-(trifluoromethyl)-7,8-dihydro[1,2,4]triazolo[4,3-b]pyridazine]: 0.94 µM.

Take `Cn1nccc1CCOc1ccc(N2CCN(C3=Nn4c(nnc4C(F)(F)F)CC3)CC2)cc1` [Example 16, 6-[4-[4-[2-(1-methyl-1H-pyrazol-5-yl)ethoxy]phenyl]piperazin-1-yl]-3-(trifluoromethyl)-7,8-dihydro[1,2,4]triazolo[4,3-b]pyridazine]: half-maximal inhibition (IC50) required 3.2 µM. The molecule `FC(F)(F)c1nnc2n1N=C(N1CC=C(c3c[nH]c4ncccc34)CC1)CC2` [Example 17, 6-[4-(1H-pyrrolo[2,3-b]pyridin-3-yl)-3,6-dihydropyridin-1(2H)-yl]-3-(trifluoromethyl)-7,8-dihydro[1,2,4]triazolo[4,3-b]pyridazine] yielded a half-inhibitory concentration (IC50) of 4.4 µM.
